Source: US12077503B2, “Substituted cyclic amides and their use as herbicides” (FMC CORPORATION, priority 2015, dated 2024)

How the values were obtained:
Assay type in all cases: in vivo
[1] = test system: sedge, umbrella (small-flower umbrella sedge, Cyperus difformis); assay: Test B flooded paddy test; conditions: Cyperus difformis, 250 g ai/ha, Flood; 0 to 100 scale where 0 is no effect and 100 is complete control; read-out: Sedge, Umbrella plant response rating
Outline: (§1)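 Flooding to 3 cm over soil accompanied treatment, which consisted of adding compound to the standing water around 2-leaf plants; depth was then maintained. Visual assessment versus controls followed at 13 to 15 d (scale 0–100, 0 meaning no effect).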

[2] = test system: ducksalad (Heteranthera limosa); assay: Test B flooded paddy test; conditions: Heteranthera limosa, 250 g ai/ha, Flood; 0 to 100 scale where 0 is no effect and 100 is complete control; read-out: Ducksalad plant response rating
Outline: as §1

[3] = test system: barnyardgrass (Echinochloa crus-galli); assay: Test B flooded paddy test; conditions: Echinochloa crus-galli, 250 g ai/ha, Flood; 0 to 100 scale where 0 is no effect and 100 is complete control; read-out: Barnyardgrass plant response rating
Outline: as §1

rice (Oryra sativa) = assay: Test B flooded paddy test; conditions: Oryza sativa, 250 g ai/ha, Flood; 0 to 100 scale where 0 is no effect and 100 is complete control; read-out: Rice plant response rating
Outline: as §1

[4] = test system: giant foxtail (Setaria faberii); assay: Test A preemergence; conditions: Setaria faberi, pre-emergence, 240 h, Preemergence
Outline: (§2)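 In a loam soil and sand blend, planted seeds got a preemergence directed soil spray, and young plants at the one- to two-leaf stage, 2–10 cm high, got a postemergence application; ~10 d greenhouse hold; injury rated visually, 0 = none, 100 = complete control.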

[5] = test system: ragweed (common ragweed, Ambrosia elatior); assay: Test A preemergence; conditions: Ambrosia artemisiifolia, pre-emergence, 240 h, Preemergence
Outline: as §2

[6] = test system: pigweed (Amaranthus retroflexus); assay: Test A preemergence; conditions: Amaranthus retroflexus, pre-emergence, 240 h, Preemergence
Kochia (Kochia scoparia) [7] = assay: Test A preemergence; conditions: Bassia scoparia, pre-emergence, 240 h, Preemergence
Outline: as §2

[8] = test system: barnyardgrass (Echinochloa crus-galli); assay: Test A preemergence; conditions: Echinochloa crus-galli, pre-emergence, 240 h, Preemergence
Outline: as §2

[9] = test system: ryegrass, Italian (Italian ryegrass, Lolium multiflorum); assay: Test A preemergence; conditions: Lolium multiflorum, pre-emergence, 240 h, Preemergence
Outline: as §2

[10] = test system: giant foxtail (Setaria faberii); assay: Test A postemergence; conditions: Setaria faberi, post-emergence, 240 h, Postemergence, read-out: Plant response rating, Foxtail, Giant
Outline: as §2

[11] = test system: blackgrass (Alopecurus myosuroides); assay: Test A postemergence; conditions: Alopecurus myosuroides, post-emergence, 240 h, Postemergence, read-out: Plant response rating, Blackgrass
Outline: as §2

[12] = test system: wheat (Triticum aestivum); assay: Test A postemergence; conditions: Triticum aestivum, post-emergence, 240 h, Postemergence, read-out: Plant response rating, Wheat
Outline: as §2

[13] = test system: ragweed (common ragweed, Ambrosia elatior); assay: Test A postemergence; conditions: Ambrosia artemisiifolia, post-emergence, 240 h, Postemergence, read-out: Plant response rating, Ragweed
Outline: as §2

corn (Zea mays) = assay: Test A postemergence; conditions: Zea mays, post-emergence, 240 h, Postemergence
Outline: as §2

[14] = test system: pigweed (Amaranthus retroflexus); assay: Test A postemergence; conditions: Amaranthus retroflexus, post-emergence, 240 h, Postemergence, read-out: Plant response rating, Pigweed
Outline: as §2

Kochia (Kochia scoparia) [15] = assay: Test A postemergence; conditions: Bassia scoparia, post-emergence, 240 h, Postemergence, read-out: Plant response rating, Kochia
Outline: as §2

[16] = test system: Galium (catchweed bedstraw, Galium aparine); assay: Test A postemergence; conditions: Galium, post-emergence, 240 h, Postemergence, read-out: Plant response rating, Galium
Outline: as §2

[17] = test system: barnyardgrass (Echinochloa crus-galli); assay: Test A postemergence; conditions: Echinochloa crus-galli, post-emergence, 240 h, Postemergence, read-out: Plant response rating, Barnyardgrass
Outline: as §2

[18] = test system: ryegrass, Italian (Italian ryegrass, Lolium multiflorum); assay: Test A postemergence; conditions: Lolium multiflorum, post-emergence, 240 h, Postemergence, read-out: Plant response rating, Ryegrass, Italian
Outline: as §2

[19] = 125 g ai/ha, visual injury after approximately 10 d, 0 to 100 scale where 0 is no effect and 100 is complete control
[20] = 31 g ai/ha, visual injury after approx. 10 d, 0 to 100 scale, 0 no effect, 100 complete control

Structure (SMILES): CC(C)=CC1CNC(=O)C1C(=O)Nc1cccc(F)c1F (stereo not drawn) [Compound 1012]
- pest or weed control at 250 g/ha [1]: 0%
- pest or weed control at 250 g/ha [2]: 0%
- pest or weed control at 250 g/ha [3]: 0%
- pest or weed control at 250 g/ha (rice (Oryra sativa)): 20%
- pest or weed control at 125 g/ha ([4]; 125 g ai/ha, visual injury rating after approximately 10 d, read-out: Foxtail, Giant plant response rating (0 to 100 scale, 0 is no effect, 100 is complete control)): 0%
- pest or weed control at 31 g/ha ([4]; 31 g ai/ha, 0 to 100 scale (0 no effect, 100 complete control), read-out: Plant response rating, Foxtail, Giant): 0%
- pest or weed control at 31 g/ha ([5]; 31 g ai/ha, 0 to 100 scale where 0 is no effect and 100 is complete control, read-out: Ragweed plant response rating): 0%
- pest or weed control at 125 g/ha ([5]; 125 g ai/ha, visual injury rating after approximately 10 d, read-out: Ragweed plant response rating (0 to 100 scale, 0 is no effect, 100 is complete control)): 0%
- pest or weed control at 31 g/ha ([6]; 31 g ai/ha, 0 to 100 scale where 0 is no effect and 100 is complete control, read-out: Pigweed plant response rating): 0%
- pest or weed control at 125 g/ha ([6]; 125 g ai/ha, visual injury rating after approximately 10 d, read-out: Pigweed plant response rating (0 to 100 scale, 0 is no effect, 100 is complete control)): 0%
- pest or weed control at 31 g/ha (Kochia (Kochia scoparia) [7]; 31 g ai/ha, 0 to 100 scale where 0 is no effect and 100 is complete control, read-out: Kochia plant response rating): 0%
- pest or weed control at 125 g/ha (Kochia (Kochia scoparia) [7]; 125 g ai/ha, visual injury rating after approximately 10 d, read-out: Kochia plant response rating (0 to 100 scale, 0 is no effect, 100 is complete control)): 0%
- pest or weed control at 125 g/ha ([8]; 125 g ai/ha, visual injury rating after approximately 10 d, read-out: Barnyardgrass plant response rating (0 to 100 scale, 0 is no effect, 100 is complete control)): 0%
- pest or weed control at 31 g/ha ([8]; 31 g ai/ha, 0 to 100 scale (0 no effect, 100 complete control), read-out: Plant response rating, Barnyardgrass): 0%
- pest or weed control at 31 g/ha ([9]; 31 g ai/ha, 0 to 100 scale where 0 is no effect and 100 is complete control, read-out: Ryegrass, Italian plant response rating): 0%
- pest or weed control at 125 g/ha ([9]; 125 g ai/ha, visual injury rating after approximately 10 d, read-out: Ryegrass, Italian plant response rating (0 to 100 scale, 0 is no effect, 100 is complete control)): 0%
- pest or weed control at 125 g/ha [10, 19]: 0%
- pest or weed control at 31 g/ha [10, 20]: 0%
- pest or weed control at 125 g/ha [11, 19]: 0%
- pest or weed control at 31 g/ha [11, 20]: 0%
- plant injury at 125 g/ha [12, 19]: 0%
- plant injury at 31 g/ha [12, 20]: 0%
- pest or weed control at 125 g/ha [13, 19]: 0%
- pest or weed control at 31 g/ha [13, 20]: 0%
- Corn plant response rating (crop injury, 0 = no effect, 100 = complete kill) at 125 g/ha (corn (Zea mays); [19]): 0%
- Corn plant response rating (crop injury, 0 = no effect, 100 = complete kill) at 31 g/ha (corn (Zea mays); [20]): 0%
- pest or weed control at 125 g/ha [14, 19]: 0%
- pest or weed control at 31 g/ha [14, 20]: 0%
- pest or weed control at 125 g/ha (Kochia (Kochia scoparia) [15]; [19]): 0%
- pest or weed control at 31 g/ha (Kochia (Kochia scoparia) [15]; [20]): 0%
- pest or weed control at 125 g/ha [16, 19]: 0%
- pest or weed control at 31 g/ha [16, 20]: 0%
- pest or weed control at 125 g/ha [17, 19]: 0%
- pest or weed control at 31 g/ha [17, 20]: 0%
- pest or weed control at 125 g/ha [18, 19]: 0%
- pest or weed control at 31 g/ha [18, 20]: 0%
